Results published in patent US10709725B2, “Gemcitabine ProTide hypoxia-activated prodrug and application thereof” (JIANGSU QIANZHIKANG BIOLOGICAL MEDICINE SCIENCE AND …, priority 2016, dated 2020).
Converted amounts (≈) assume the structure as drawn. Like-named read-outs stand apart in the source and are kept apart here.

What was measured:
Type in all cases: cell-based
[1] = tested on: Human lung adenocarcinoma cell A549; experiment: In-vitro inhibition of tumor cell proliferation (3H-TdR, 72 h), normal oxygen and hypoxic; conditions: A549, 72 h
Experimental: (§1) Take tumor cells in the logarithmic growth phase, add 0.25% pancreatin for digestion for 3 min, use RPMI-1640 containing 10% calf serum for suspension culture of the cells, count the number, adjust cell concentration to 1×10^5 cells/mL, inoculate to a Top-count dedicated 96-well cell culture plate at 100 μL/well, and incubate at 37° C. and 5% CO2 for 24 h; divide the cells into experimental groups and control groups, and add a target compound solution (0.001 μg/mL, 0.01 μg/mL, 0.1 μg/mL, 1 μg/mL, 10 μg/mL) to the experimental groups, wherein each concentration corresponded to four wells, and the volume of each well was made up to 200 μL; after adding samples, continue to culture for 72 h for each group (for hypoxic groups, continue to culture for 72 h at 5% CO2, 95% N2), add ^3H-TdR 3×10^5Bq to each group before culture ended, and measure the CPM (count per minute) value of each well with Top-count; and calculate the median inhibition concentration (IC50) of drugs in each experimental group on cell proliferation.

[2] = tested on: Human liver cancer HepG2 cell; experiment: as above; conditions: HepG2, 72 h
Experimental: as §1

[3] = tested on: Human pancreatic adenocarcinoma cell BxPC-3 cell; experiment: as above; design: Median inhibition concentration IC50 normal oxygen (air) / Median inhibition concentration IC50 hypoxic (nitrogen): unit not given here; conditions: for IC50: Homo sapiens
[4] = tested on: tumor cells; experiment: In-vitro inhibition of tumor cell proliferation, hypoxic versus normal oxygen; conditions: in words, see Table 1
Experimental: as §1

[5] = hypoxic (5% CO2, 95% N2), read-out: Median inhibition concentration IC50 hypoxic (nitrogen)
[6] = normal oxygen (air), read-out: Median inhibition concentration IC50 normal oxygen (air)
[7] = BxPC-3, 72 h, hypoxic (5% CO2, 95% N2), read-out: Median inhibition concentration IC50 hypoxic (nitrogen)
[8] = BxPC-3, 72 h, normal oxygen (air), read-out: Median inhibition concentration IC50 normal oxygen (air)
[9] = BXPC-3, 72 h, hypoxic (5% CO2, 95% N2), read-out: Median inhibition concentration IC50 hypoxic (nitrogen)
[10] = BXPC-3, 72 h, normal oxygen (air), read-out: Median inhibition concentration IC50 normal oxygen (air)
[11] = BxPC-3, 72 h, hypoxic (5% CO2, 95% N2)
[12] = BxPC-3, 72 h, normal oxygen (air)

Compound	IC50 [1, 5]	IC50 [1, 6]	IC50 [2, 5]	IC50 [2, 6]	IC50 [3, 9]	IC50 [3, 10]	other results
C[C@H](NP(=O)(OC[C@H]1O[C@@H](n2ccc(N)nc2=O)C(F)(F)C1O)Oc1ccccc1)C(=O)OC(C)(C)c1ccc([N+](=O)[O-])cc1 (stereo partly drawn) [Compound 002]	0.1 µg/mL (≈ 0.153 µM)	2 µg/mL (≈ 3.06 µM)	0.2 µg/mL (≈ 0.306 µM)	> 10 µg/mL			IC50 [3, 7]: 0.4 µg/mL (≈ 0.612 µM); IC50 [3, 8]: > 10 µg/mL
CC(OC(=O)[C@H](C)NP(=O)(OC[C@H]1O[C@@H](n2ccc(N)nc2=O)C(F)(F)C1O)Oc1ccccc1)c1cnc([N+](=O)[O-])n1C (stereo partly drawn) [Compound 003]			0.4 µg/mL (≈ 0.622 µM)	> 10 µg/mL			
CC(OC(=O)[C@H](C)NP(=O)(OC[C@H]1O[C@@H](n2cnc(N)nc2=O)C(F)(F)C1O)Oc1ccccc1)c1ccc([N+](=O)[O-])o1 (stereo partly drawn) [Compound 004]							IC50 [3, 7]: 0.4 µg/mL (≈ 0.634 µM); IC50 [3, 8]: > 10 µg/mL
CC(OC(=O)[C@H](C)NP(=O)(OC[C@H]1O[C@@H](n2ccc(N)nc2=O)C(F)(F)C1O)Oc1ccccc1)c1ccc([N+](=O)[O-])s1 (stereo partly drawn) [Compound 005]	0.1 µg/mL (≈ 0.155 µM)	2 µg/mL (≈ 3.1 µM)					
CC(OP(=O)(N[C@@H](C)C(=O)OCc1ccccc1)OC[C@H]1O[C@@H](n2ccc(N)nc2=O)C(F)(F)C1O)c1ccc([N+](=O)[O-])cc1 (stereo partly drawn) [Compound 006]	0.2 µg/mL (≈ 0.306 µM)	2 µg/mL (≈ 3.06 µM)			0.4 µg/mL (≈ 0.612 µM)	> 10 µg/mL	
COC(=O)[C@H](C)NP(=O)(OC[C@H]1O[C@@H](n2cnc(N)nc2=O)C(F)(F)C1O)OC(C)c1ccc([N+](=O)[O-])cc1 (stereo partly drawn) [Compound 007]			0.5 µg/mL (≈ 0.864 µM)	> 10 µg/mL	0.4 µg/mL (≈ 0.692 µM)	> 10 µg/mL	
CCOC(=O)[C@H](C)NP(=O)(OC[C@H]1O[C@@H](n2cnc(N)nc2=O)C(F)(F)C1O)OC(C)c1ccc([N+](=O)[O-])cc1 (stereo partly drawn) [Compound 008]			0.3 µg/mL (≈ 0.506 µM)	> 10 µg/mL	0.4 µg/mL (≈ 0.675 µM)	> 10 µg/mL	
CC(C)OC(=O)[C@H](C)NP(=O)(OC[C@H]1O[C@@H](n2cnc(N)nc2=O)C(F)(F)C1O)OC(C)c1ccc([N+](=O)[O-])cc1 (stereo partly drawn) [Compound 009]	0.2 µg/mL (≈ 0.33 µM)	2 µg/mL (≈ 3.3 µM)			0.4 µg/mL (≈ 0.66 µM)	> 10 µg/mL	
CCCCOC(=O)[C@H](C)NP(=O)(OC[C@H]1O[C@@H](n2cnc(N)nc2=O)C(F)(F)C1O)OC(C)c1ccc([N+](=O)[O-])cc1 (stereo partly drawn) [Compound 010]	0.2 µg/mL (≈ 0.322 µM)	2 µg/mL (≈ 3.22 µM)					
CC(OP(=O)(N[C@@H](C)C(=O)OCC(C)(C)C)OC[C@H]1O[C@@H](n2cnc(N)nc2=O)C(F)(F)C1O)c1ccc([N+](=O)[O-])cc1 (stereo partly drawn) [Compound 011]	0.2 µg/mL (≈ 0.315 µM)	2 µg/mL (≈ 3.15 µM)					
CC(OP(=O)(N[C@@H](C)C(=O)OC1CCCCC1)OC[C@H]1O[C@@H](n2cnc(N)nc2=O)C(F)(F)C1O)c1ccc([N+](=O)[O-])cc1 (stereo partly drawn) [Compound 012]			0.5 µg/mL (≈ 0.773 µM)	> 10 µg/mL	0.5 µg/mL (≈ 0.773 µM)	> 10 µg/mL	
C[C@H](NP(=O)(OCc1ccc([N+](=O)[O-])s1)OC[C@H]1O[C@@H](n2cnc(N)nc2=O)C(F)(F)C1O)C(=O)OC1CCCCC1 (stereo partly drawn) [Compound 013]					0.8 µg/mL (≈ 1.25 µM)	> 10 µg/mL	
COC(=O)[C@H](C)NP(=O)(OC[C@H]1O[C@@H](n2cnc(N)nc2=O)C(F)(F)C1O)OC(C)c1ccc([N+](=O)[O-])cc1 (stereo partly drawn) [Compound 014]							Median inhibition concentration IC50 hypoxic (nitrogen) [3, 11]: 0.7; Median inhibition concentration IC50 normal oxygen (air) [3, 12]: > 10
C[C@H](NP(=O)(OCc1ccc([N+](=O)[O-])o1)OC[C@H]1O[C@@H](n2ccc(N)nc2=O)C(F)(F)C1O)C(=O)OCc1ccccc1 (stereo partly drawn) [Compound 015]					0.5 µg/mL (≈ 0.794 µM)	> 10 µg/mL	
CC(C)OC(=O)[C@H](C)NP(=O)(OCc1ccc([N+](=O)[O-])s1)OC[C@H]1O[C@@H](n2cnc(N)nc2=O)C(F)(F)C1O (stereo partly drawn) [Compound 016]					0.4 µg/mL (≈ 0.668 µM)	> 10 µg/mL	
CCOC(=O)[C@H](C)NP(=O)(OCc1cnc([N+](=O)[O-])n1C)OC[C@H]1O[C@@H](n2cnc(N)nc2=O)C(F)(F)C1O (stereo partly drawn) [Compound 017]					0.8 µg/mL (≈ 1.37 µM)	> 10 µg/mL	
COc1ccc(COP(=O)(N[C@@H](C)C(=O)OC(C)c2ccc([N+](=O)[O-])o2)OC[C@H]2O[C@@H](n3ccc(N)nc3=O)C(F)(F)C2O)cc1 (stereo partly drawn) [Compound 018]					0.5 µg/mL (≈ 0.742 µM)	> 10 µg/mL	
Cc1ccccc1COP(=O)(N[C@@H](C)C(=O)OC(C)(C)c1ccc([N+](=O)[O-])s1)OC[C@H]1O[C@@H](n2ccc(N)nc2=O)C(F)(F)C1O (stereo partly drawn) [Compound 019]					0.8 µg/mL (≈ 1.16 µM)	> 10 µg/mL	
CC(OC(=O)[C@H](C)NP(=O)(OCc1ccc(N(C)C)cc1)OC[C@H]1O[C@@H](n2ccc(N)nc2=O)C(F)(F)C1O)c1ccc([N+](=O)[O-])cc1 (stereo partly drawn) [Compound 020]					0.4 µg/mL (≈ 0.574 µM)	> 10 µg/mL	
COc1ccccc1COP(=O)(N[C@@H](C)C(=O)OC(C)c1cnc([N+](=O)[O-])n1C)OC[C@H]1O[C@@H](n2ccc(N)nc2=O)C(F)(F)C1O (stereo partly drawn) [Compound 021]					0.5 µg/mL (≈ 0.727 µM)	> 10 µg/mL	
CC(OC(=O)Nc1ccn([C@@H]2O[C@H](COP(=O)(N[C@@H](C)C(=O)OCc3ccccc3)Oc3ccccc3)C(O)C2(F)F)c(=O)n1)c1ccc([N+](=O)[O-])cc1 (stereo partly drawn) [Compound 022]	0.01 µg/mL (≈ 0.0129 µM)	0.01 µg/mL (≈ 0.0129 µM)	0.3 µg/mL (≈ 0.388 µM)	0.4 µg/mL (≈ 0.517 µM)			Cytotoxicity under a hypoxic condition compared with that under a normal oxygen condition [4]: not significantly different; IC50 ([3]; BXPC-3, 72 h, read-out: Median inhibition concentration IC50 hypoxic (nitrogen)): 0.1 µg/mL (≈ 0.129 µM); IC50 ([3]; BXPC-3, 72 h, read-out: Median inhibition concentration IC50 normal oxygen (air)): 0.1 µg/mL (≈ 0.129 µM)
C[C@H](NP(=O)(OC[C@H]1O[C@@H](n2ccc(N)nc2=O)C(F)(F)C1O)Oc1ccccc1)C(=O)OCc1ccc([N+](=O)[O-])cc1 (stereo partly drawn) [Compound 023]	0.01 µg/mL (≈ 0.016 µM)	0.01 µg/mL (≈ 0.016 µM)	0.3 µg/mL (≈ 0.48 µM)	0.4 µg/mL (≈ 0.64 µM)			Cytotoxicity under a hypoxic condition compared with that under a normal oxygen condition [4]: not significantly different; IC50 [3, 7]: 0.1 µg/mL (≈ 0.16 µM); IC50 [3, 8]: 0.1 µg/mL (≈ 0.16 µM)
C[C@H](NP(=O)(OCc1ccccc1Cl)OC[C@H]1O[C@@H](n2ccc(N)nc2=O)C(F)(F)C1O)C(=O)OC(C)(C)c1ccc([N+](=O)[O-])s1 (stereo partly drawn) [Compound 024]							Cytotoxicity under a hypoxic condition compared with that under a normal oxygen condition [4]: differed slightly; Median inhibition concentration IC50 hypoxic (nitrogen) [3, 11]: >10; Median inhibition concentration IC50 normal oxygen (air) [3, 12]: >10
Nc1ccn([C@@H]2O[C@H](CO)[C@@H](O)C2(F)F)c(=O)n1 [Gemcitabine]	0.01 µg/mL (≈ 0.038 µM)	0.01 µg/mL (≈ 0.038 µM)	0.2 µg/mL (≈ 0.76 µM)	0.2 µg/mL (≈ 0.76 µM)			Cytotoxicity under a hypoxic condition compared with that under a normal oxygen condition [4]: no significant difference; IC50 [3, 7]: 0.2 µg/mL (≈ 0.76 µM); IC50 [3, 8]: 0.2 µg/mL (≈ 0.76 µM)
